IC50 and IC90 data for 52 compounds are collected here from ChEMBL document CHEMBL4483862, “Open-source discovery of chemical leads for next-generation chemoprotective antimalarials” (2018).

The term IC50 denotes the concentration at which inhibition is half-maximal. As usually defined, the IC90 is the concentration at which the effect reaches the 90% level.

In this assay the test system is Plasmodium berghei. As to the kind of experiment: Luciferase/luciferin-expressing antifolate-resistant parasites were used to infect a culture of HepG2 cells that were pre-incubated with compounds. Infected hepatocytes emit light due to the luciferase reaction. Assay results are presented as the percent inhibition of light emission compared to control. […]. As to conditions: sporozoite; for IC50: read-out: LUCIFERASE INFECTION ASSAY - IC50; for IC90: read-out: LUCIFERASE INFECTION ASSAY - IC90. It counts as functional.

As to `CCOC(=O)c1sc([S+](C)[O-])c2c1CCc1conc1-2` (centres undefined), the IC50 was above 10.6 µM and the IC90 is above 10.6 µM.

On to `Clc1cccc(Sc2ccc(-c3ccccn3)s2)c1`, for which the IC50 is above 10.9 µM and the concentration for an effect of 90% (IC90) is above 10.9 µM.

Consider `CCOC(=O)c1ccc(-n2sccc2=O)cc1`, for which the IC50 was above 13.2 µM and the 90% effect concentration (IC90) was above 13.2 µM.

With `Cc1cc2ncc(-c3ccnc(SCC(=O)c4ccc(Cl)cc4)n3)c(C)n2n1`, the 50% inhibitory concentration (IC50) is above 8.05 µM and the IC90 was above 8.05 µM.

As for `O=S(=O)(Oc1ccc(Cl)cc1)c1cc(S(=O)(=O)c2ccccc2)cs1`, the IC50 is above 7.95 µM and the IC90 is above 7.95 µM.

With `CSc1sc(C(N)=S)c(C)c1C(C)=O`, the half-maximal inhibitory concentration (IC50) is above 13.4 µM and the IC90 is above 13.4 µM.

`CSc1sc(-c2cc[nH]n2)c(-c2ccccc2)c1C#N`: the half-maximal inhibitory concentration (IC50) is above 11.1 µM and the IC90 is above 11.1 µM.

Turning to `CSc1sc(-c2ccon2)c(-c2ccccc2)c1C#N`, the IC50 is above 11.1 µM and the IC90 was above 11.1 µM.

Consider `O=C(NC(=O)c1cnn2c(C(F)(F)F)cc(C(F)(F)F)nc12)Nc1ccc(Cl)cc1`, for which the IC50 is above 7.31 µM and the concentration for an effect of 90% (IC90) is above 7.31 µM.

As to `Cn1nc(-c2ccc(/C=N/NC(=O)c3ccc(Cl)cc3Cl)s2)cc1C(F)(F)F`, the IC50 is above 7.38 µM and the IC90 is above 7.38 µM.

For `N=S(=O)(c1ccc(Cl)cc1)c1cccs1` (centres undefined), the IC50 is above 12.8 µM and the IC90 was above 12.8 µM.

For `O=C(COc1ccccc1CSc1ccc(Cl)cc1)N/N=C/c1ccccc1Cl`, the IC50 is above 7.41 µM and the IC90 is above 7.41 µM.

Regarding `O=[N+]([O-])c1ccsc1Oc1ccc(Cl)cc1Cl`, the IC50 is above 11.4 µM and the IC90 was above 11.4 µM.

Take `Cc1cc2ncc(-c3ccnc(SCC(=O)Nc4cccc(C(F)(F)F)c4)n3)c(C)n2n1`: the IC50 is above 7.2 µM and the IC90 was above 7.2 µM.

With `Cn1nc(-c2ccc(/C=C(\C#N)S(C)(=O)=O)s2)cc1C(F)(F)F`, the concentration for half-maximal inhibition (IC50) is above 9.13 µM and the IC90 was above 9.13 µM.

For the compound `COC(=O)C1=C(Nc2ccc(OS(=O)(=O)c3ccc(F)cc3F)cc2)CSC1`, the IC50 was above 7.72 µM and the IC90 was above 7.72 µM.

In the case of `N#CC(=C1SCCCCS1)S(=O)(=O)c1ccccc1`, the concentration for half-maximal inhibition (IC50) is above 10.6 µM and the IC90 was above 10.6 µM.

For the compound `O=S(=O)(Nc1cccc(C(F)(F)F)c1)c1ccc(S(=O)(=O)c2ncc(C(F)(F)F)cc2Cl)s1`, the IC50 is above 5.99 µM and the IC90 is above 5.99 µM.

As to `CC1(C)CC(=O)c2c(SCCOC(=O)Nc3ccccc3)sc(C#N)c2C1`, the IC50 is above 8.24 µM and the IC90 is above 8.24 µM.

Regarding `COc1ccc(CSc2nnc(CSc3cccs3)n2C)cc1`, the half-inhibitory concentration (IC50) is above 9.08 µM and the IC90 is above 9.08 µM.

In the case of `O=S(=O)(CCSc1ccc(C(F)(F)F)cn1)c1ccc(OC(F)(F)F)cc1`, the IC50 was above 7.65 µM and the concentration for an effect of 90% (IC90) is above 7.65 µM.

As to `CSc1nccc(-c2sc(SC)c3c2CC(C)(C)CC3=O)n1`, the IC50 is above 9.41 µM and the IC90 is above 9.41 µM.

On to `C=S(=O)(N/C=C1/C(=O)c2ccccc2N(C)S1(=O)=O)c1ccccc1` (centres undefined), for which the IC50 was above 8.77 µM and the IC90 is above 8.77 µM.

`CC(=O)c1sc(SCCS(=O)(=O)c2ccccc2)c2c1CC(C)(C)CC2=O`: the IC50 was above 7.81 µM and the IC90 was above 7.81 µM.

`Cc1cc2ncc(-c3ccnc(SCC(=O)C(C)(C)C)n3)c(C)n2n1`: the 50% inhibitory concentration (IC50) was above 9.28 µM and the IC90 was above 9.28 µM.

On to `CCOC(=O)c1sc(SC)c2c1CCc1conc1-2`, for which the IC50 was above 11.2 µM and the concentration for an effect of 90% (IC90) is above 11.2 µM.

Take `NNC(=O)COc1ccccc1CSc1ccc(Cl)cc1`: the IC50 was above 10.2 µM and the IC90 is above 10.2 µM.

On to `O=C1CCC(c2ccccc2)C(=O)/C1=N\Nc1ccccc1Cl` (centres undefined), for which the IC50 was above 10.1 µM and the IC90 is above 10.1 µM.

As for `Cn1c(Sc2sccc2[N+](=O)[O-])nnc1C(F)(F)F`, the half-maximal inhibitory concentration (IC50) is above 10.6 µM and the IC90 is above 10.6 µM.

For `Cc1csc2sc(/C=N/Cc3cccs3)c(C)c12`, the IC50 is above 11.3 µM and the IC90 was above 11.3 µM.

Take `O=C1C=C(SCC(=O)c2ccc([N+](=O)[O-])cc2)SC(c2ccccc2Cl)C1` (centres undefined): the IC50 was above 7.86 µM and the IC90 was above 7.86 µM.

Consider `CNc1ccc(CSc2ccc(C(F)(F)F)cn2)cc1C(F)(F)F`, for which the IC50 was above 9.01 µM and the concentration for an effect of 90% (IC90) was above 9.01 µM.

With `CO/N=C1\CCCc2c(C(=O)NNS(=O)(=O)c3ccccc3Cl)sc(SC)c21`, the IC50 is above 7.17 µM and the IC90 is above 7.17 µM.

Consider `C=S(=O)(NS(=O)(=O)c1ccc2c(c1)CCN2C(C)=O)c1ccc(C)cc1` (centres undefined), for which the IC50 is above 8.41 µM and the IC90 was above 8.41 µM.

Consider `CSc1ncc2c(n1)CC(C)(C)C/C2=N\OC(=O)c1cccc(C(F)(F)F)c1`, for which the IC50 is above 8.06 µM and the concentration for an effect of 90% (IC90) was above 8.06 µM.

With `CCOC(=O)c1sc(N(NC(=O)c2ccc(Cl)cc2)C(=O)c2ccc(Cl)cc2)c2c1CC(C)(C)CC2=O`, the IC50 amounted to 1.81 µM and the IC90 worked out at 2.02 µM.

For the compound `Cn1nc(-c2ccc(S(=O)(=O)Oc3cccc([N+](=O)[O-])c3)s2)cc1C(F)(F)F`, the IC50 was above 7.61 µM and the concentration for an effect of 90% (IC90) is above 7.61 µM.

Consider `CSc1sc(C(=O)N/N=C/c2ccc(Cl)cc2)c2c1C1(CCC2)SCCS1`, for which the half-inhibitory concentration (IC50) is above 7.25 µM and the IC90 is above 7.25 µM.

On to `CN(C)n1cccc1/C=C(\C#N)S(C)(=O)=O`, for which the IC50 was above 13.8 µM and the concentration for an effect of 90% (IC90) is above 13.8 µM.

Consider `CC(C)(C)c1cc(-c2nccs2)ccc1/C=N/O`, for which the IC50 was above 12.7 µM and the IC90 is above 12.7 µM.

In the case of `O=C(COc1ccccc1SCc1ccc(Cl)cc1)NNC(=O)c1ccccc1Cl`, the IC50 is above 7.15 µM and the IC90 is above 7.15 µM.

For the compound `CCOC(=O)c1ccc(Oc2sccc2[N+](=O)[O-])cc1`, the IC50 was above 11.3 µM and the IC90 is above 11.3 µM.

For `O=S(=O)(Oc1cccc(C(F)(F)F)c1)c1cc(S(=O)(=O)c2ccccc2)cs1`, the IC50 was above 7.36 µM and the IC90 was above 7.36 µM.

For the compound `CCOC(=O)c1sc(N2CCCC2)c2c1CC(C)(C)CC2=O`, the concentration for half-maximal inhibition (IC50) was above 10.3 µM and the IC90 is above 10.3 µM.

On to `O=S(=O)(Oc1ccc(Cl)cc1)c1cc(S(=O)(=O)Oc2ccc(Cl)cc2)c(Cl)s1`, for which the IC50 is above 6.6 µM and the IC90 is above 6.6 µM.

On to `Cc1nn(Cc2nnc(SCc3cccc(C(F)(F)F)c3)o2)c(C)c1Br`, for which the IC50 is above 7.38 µM and the IC90 is above 7.38 µM.

As for `CCOC(=O)c1csc(-c2sc(SC)c(C(C)=O)c2C)n1`, the IC50 is above 9.66 µM and the IC90 is above 9.66 µM.

For `CC(=O)c1sc(SCCS(=O)(=O)c2ccc(C)cc2)c2c1CC(C)(C)CC2=O`, the 50% inhibitory concentration (IC50) is above 7.56 µM and the IC90 is above 7.56 µM.

Turning to `CC(C)c1ccc(NC(=O)CSc2ncc3c(n2)CC(C)(C)CC3=O)cc1`, the IC50 was above 8.6 µM and the IC90 is above 8.6 µM.

For `CC(C)(C)c1csc(-c2ccc(/C=N/OC(=O)Nc3ccc(Cl)cc3)cc2)n1`, the IC50 was above 7.97 µM and the IC90 was above 7.97 µM.

Regarding `O=C(COc1ccccc1SCc1ccc(Cl)cc1)NNC(=O)c1ccc(Cl)cc1`, the IC50 is above 7.15 µM and the IC90 was above 7.15 µM.

For the compound `O=C1CCC(c2ccccc2)C(=O)/C1=N\Nc1ccc(Cl)cc1` (centres undefined), the IC50 was above 10.1 µM and the IC90 is above 10.1 µM.
